Results taken from patent US10813920B2, “Drug for treating corneal endothelium by promoting cell proliferation or inhibiting cell damage” (THE DOSHISHA, priority 2013, dated 2020).

Tests used:
Format in all cases: cell-based
[1] = tested on: corneal endothelial cells; test: Western blot of apoptosis molecules after UV irradiation; conditions: UV 100 J/m^2, 10 μM
Procedure: *Human corneal endothelial cells (HCEC, where the cells were obtained and culturing method thereof): HCEC was cultured as follows. In short, Descemet's membrane including corneal endothelial cells was peeled off from a corneal for research purchased from the Seattle Eye Bank, and the corneal endothelial cells were mechanically peeled off with a basal membrane. After collagenase (ROCHE catalog No: 10 103 586 001) was used to detach and collect the corneal endothelial cell from the basal membrane (typically 1 mg/mL collagenase A (Roche Applied Science) was used for treatment at 37° C. for 2 hours), the cells were subjected to primary culture. The medium used was Opti-MEM I Reduced-Serum Medium, Liquid (INVITROGEN catalog No.: 31985-070) to which 8% fetal bovine serum (FBS) (BIOWEST, catalog No.: S1820-500), […] of CaCl2.2H2O (SIGMA catalog No.: C7902-500G), 0.08% of chondroitin sulfate (SIGMA catalog No.: C9819-5G), 20 μg/ml of ascorbic acid (SIGMA catalog No.: A4544-25G), 50 μg/ml of gentamicin (INVITROGEN catalog No.: 15710-064) and 5 ng/ml of EGF (INVITROGEN catalog No.: PHG0311) were added and acclimated for a 3T3 feeder cell. Specifically, after digestion at 37° C., HCEC obtained from individual corneas was resuspended in a culture medium and plated on a well of a 12-well plate coated with FNC Coating Mix®. The culture medium was prepared in accordance with a partially-modified disclosed protocol. In short, a basal cultural medium containing OptiMEM-I (Life Technologies), 8% FBS, 5 ng/mL of epithelial growth factor (EGF) (Sigma-Aldrich Co., St. Louis, Mo.), 20 μg/mL of ascorbic acid (Sigma-Aldrich), 200 mg/L calcium chloride (Sigma-Aldrich), 0.08% chondroitin sulfate (Wako Pure Chemical Industries, Osaka) and 50 μg/mL of gentamicin was prepared and an acclimated medium was collected after inactivated 3T3 fibroblasts were cultured. The 3T3 fibroblasts were inactivated as previously described. […] Immunostaining was applied to the cells for observation with a fluorescence microscope. […]

[2] = tested on: human corneal endothelial cells; test: Ki67 immunostaining of cultured human corneal endothelial cells; conditions: 10 μM; after 3 days; vs control
Procedure: *Human corneal endothelial cells (HCEC, where the cells were obtained and culturing method thereof): HCEC was cultured as follows. In short, Descemet's membrane including corneal endothelial cells was peeled off from a corneal for research purchased from the Seattle Eye Bank, and the corneal endothelial cells were mechanically peeled off with a basal membrane. After collagenase (ROCHE catalog No: 10 103 586 001) was used to detach and collect the corneal endothelial cell from the basal membrane (typically 1 mg/mL collagenase A (Roche Applied Science) was used for treatment at 37° C. for 2 hours), the cells were subjected to primary culture. The medium used was Opti-MEM I Reduced-Serum Medium, Liquid (INVITROGEN catalog No.: 31985-070) to which 8% fetal bovine serum (FBS) (BIOWEST, catalog No.: S1820-500), […] of CaCl2.2H2O (SIGMA catalog No.: C7902-500G), 0.08% of chondroitin sulfate (SIGMA catalog No.: C9819-5G), 20 μg/ml of ascorbic acid (SIGMA catalog No.: A4544-25G), 50 μg/ml of gentamicin (INVITROGEN catalog No.: 15710-064) and 5 ng/ml of EGF (INVITROGEN catalog No.: PHG0311) were added and acclimated for a 3T3 feeder cell. […] Immunostaining was applied to the cells for observation with a fluorescence microscope. […]

[3] = tested on: human corneal endothelial cells; test: UV-induced cell death, live cell count; conditions: UV 100 J/m^2; 10 μM; 12 hours after UV irradiation; vs UV only
Procedure: In order to study the effect of a p38 MAP kinase signal inhibition on cell death, cultured human corneal endothelial cells were stimulated with ultraviolet rays (UV) of 100 J/m^2 to induce cell death to study the effect of SB203580 (used at 10 μM). The number of cells was counted for the study.

Question: With `C[S+]([O-])c1ccc(-c2nc(-c3ccncc3)c(-c3ccc(F)cc3)[nH]2)cc1` (centres unmarked) [SB203580, 4-(4-fluorophenyl)-2-(4-methylsulfinylphenyl)-5-(4-pyridyl)-1H-imidazole] as the compound, how does the “activation by cleavage of PARP due to UV irradiation” value [1] read?
Answer: suppresses

Question: What about the “activation by cleavage of caspase 3 due to UV irradiation” value [1] of the same compound?
Answer: suppresses

Question: And the “phosphorylated histone H2AX induced by UV irradiation” value [1]?
Answer: suppresses

Question: What about the “Expression of Ki67 (Ki67 positive cells)” value [2] of the same compound?
Answer: significantly more cells

Question: What about the “number of live cells after UV irradiation (percentage to control)” value [3] of the same compound?
Answer: significantly increases
